The record followed here is patent US9145372B2, “Pyridazine derivatives, compositions and methods for treating cognitive impairment” (AGENEBIO, INC., priority 2010, dated 2015).

Bounds are passed on as bounds.

The target of data set [1] is T1, GABAA α5β3γ2 subtype receptor (Homo sapiens, UniProt P18507+P31644).
T1 construct: myc-His (vector-encoded); expressed in transfected cells; host or cells: Xenopus laevis oocytes injected with cDNAs
T1 sequence (P31644 32-462): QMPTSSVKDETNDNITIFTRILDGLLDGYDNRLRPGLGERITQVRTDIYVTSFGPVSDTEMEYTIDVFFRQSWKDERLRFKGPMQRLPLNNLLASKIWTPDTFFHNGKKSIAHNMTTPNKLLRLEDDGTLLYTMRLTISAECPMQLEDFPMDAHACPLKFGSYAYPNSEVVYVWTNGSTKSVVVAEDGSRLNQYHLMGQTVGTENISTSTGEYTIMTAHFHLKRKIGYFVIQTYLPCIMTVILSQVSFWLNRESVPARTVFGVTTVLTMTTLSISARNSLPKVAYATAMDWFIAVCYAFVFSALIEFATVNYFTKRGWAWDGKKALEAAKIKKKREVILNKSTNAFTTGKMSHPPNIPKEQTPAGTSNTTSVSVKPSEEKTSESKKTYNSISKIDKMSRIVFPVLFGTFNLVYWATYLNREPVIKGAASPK
T1 sequence (P28472 26-473 partner): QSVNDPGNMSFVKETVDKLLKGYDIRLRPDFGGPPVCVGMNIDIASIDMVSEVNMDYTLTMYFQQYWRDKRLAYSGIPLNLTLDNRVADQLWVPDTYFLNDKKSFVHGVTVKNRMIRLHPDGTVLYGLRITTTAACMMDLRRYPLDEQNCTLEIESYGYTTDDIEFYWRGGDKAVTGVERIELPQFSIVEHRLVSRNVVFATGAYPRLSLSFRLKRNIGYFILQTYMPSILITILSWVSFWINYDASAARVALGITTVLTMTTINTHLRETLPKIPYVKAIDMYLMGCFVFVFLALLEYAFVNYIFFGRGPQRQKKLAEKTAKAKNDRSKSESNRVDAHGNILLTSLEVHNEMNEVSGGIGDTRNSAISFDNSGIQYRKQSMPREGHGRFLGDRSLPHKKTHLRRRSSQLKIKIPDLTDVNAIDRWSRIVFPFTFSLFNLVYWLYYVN
T1 sequence (P18507 40-467 limits assumed): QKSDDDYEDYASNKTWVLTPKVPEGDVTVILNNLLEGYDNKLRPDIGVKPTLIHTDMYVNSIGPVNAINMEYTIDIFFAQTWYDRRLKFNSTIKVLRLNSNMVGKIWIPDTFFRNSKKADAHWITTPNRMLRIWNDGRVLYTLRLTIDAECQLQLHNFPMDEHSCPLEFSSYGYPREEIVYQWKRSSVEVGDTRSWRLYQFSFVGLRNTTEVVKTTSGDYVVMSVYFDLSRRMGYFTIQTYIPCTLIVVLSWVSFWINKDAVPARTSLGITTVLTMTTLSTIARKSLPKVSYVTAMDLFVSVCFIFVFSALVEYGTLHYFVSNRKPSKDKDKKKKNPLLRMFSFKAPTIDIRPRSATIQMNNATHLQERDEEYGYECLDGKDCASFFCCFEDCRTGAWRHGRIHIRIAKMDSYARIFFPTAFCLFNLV
The data set can be described thus: GABA-gated Cl- current potentiation in Xenopus oocytes expressing GABAA α5β3γ2 (TEVC). The data set is classed as cell-based. The conditions noted are these: read-out: GABA α5 EC50 % potentiation. The source says: Step 1: Establish Clones of GABAAR Subunits (α5, β3, γ2, α1, α2 and α3) and Prepare the Corresponding cRNAs: Human clones of GABAA-R α5, β3, γ2, α1, α2 and α3 subunits are obtained from commercial resources (e.g., OriGene, http://www.origene.com and Genescript, http://www.genescript.com). These clones are engineered into pRC, pCDM, pcDNA, and pBluescript KSM vector (for oocyte expression) or other equivalent expression vectors. Conventional transfection agents (e.g., FuGene, Lipofectamine 2000, or others) are used to transiently transfect host cells.
Adult female Xenopus laevis frogs were purchased from Nasco (Fort Atkinson, Wis.). […] All chemicals used were of reagent grade. […] Stock solutions of Diazepam, Flumazenil and compounds of the present invention were prepared in dimethyl sulfoxide (DMSO) and then diluted to an appropriate concentration with the extracellular solution just before use. To avoid adverse effects from DMSO exposure, the final concentration of DMSO was not higher than 0.3% (v/v).
Upon conclusion of compound testing and successful washout, a 1.0 μM Diazepam was tested and used for comparative activity on the two GABAAR subtypes.
Other concentrations of the test compound may also be tested following the same protocol.
Results are expressed as mean±SEM.

In another data set the target is GABAA α5 receptor (Rattus norvegicus, UniProt P18508+P19969). In words: GABAA α5 receptor occupancy in vivo with Ro 15-4513 tracer (hippocampus vs cerebellum). To be noted: tracer 1 μg/kg, i.v., after vehicle administration. The source says: Adult male Long Evans rats (265-295 g, Charles River, Portage, Mich., n=4/group) were used for GABAA α5 receptor occupancy studies. Rats were individually housed in ventilated stainless-steel racks on a 12:12 light/dark cycle. Food and water were available ad libitum.
Ro 15-4513 was used as a receptor occupancy (RO) tracer for GABAA α5 receptor sites in the hippocampus and cerebellum. Ro 15-4513 was chosen as the tracer based on its selectivity for GABAA α5 receptors relative to other alpha subunit containing GABAA receptors and because it has been successfully used for GABAA α5 RO studies in animals and humans (see, e.g., Lingford-Hughes et al., J. Cereb. Blood Flow Metab. 22:878-89 (2002); Pym et al, Br. J. Pharmacol. 146: 817-825 (2005); and Maeda et al., Synapse 47: 200-208 (2003)). Ro 15-4513 (1 μg/kg), was dissolved in 25% hydroxyl-propyl beta-cyclodextrin and administered i.v. 20′ prior to the RO evaluations. Methyl 3,5-diphenylpyridazine-4-carboxylate (0.1-10 mg/kg) was synthesized by Nox Pharmaceuticals (India) and was dissolved in 25% hydroxyl-propyl beta-cyclodextrin and administered i.v. 15′ prior to tracer injection.
The rats were sacrificed by cervical dislocation 20′ post tracer injection. The whole brain was rapidly removed, and lightly rinsed with sterile water. Trunk blood was collected in EDTA coated eppendorf tubes and stored on wet ice until study completion. Hippocampus and cerebellum were dissected and stored in 1.5 ml eppendorf tubes, and placed on wet ice until tissue extraction. In a drug naïve rat, six cortical brain tissues samples were collected for use in generating blank and standard curve samples.
Acetonitrile containing 0.1% formic acid was added to each sample at a volume of four times the weight of the tissue sample. For the standard curve (0.1-30 ng/g) samples, a calculated volume of standard reduced the volume of acetonitrile. The sample was homogenized (FastPrep-24, Lysing Matrix D; 5.5 m/s, for 60 seconds or 7-8 watts power using sonic probe dismembrator; Fisher Scientific) and centrifuged for 16-minutes at 14,000 rpm. The (100 μl) supernatant solution was diluted by 300 μl of sterile water (pH 6.5). This solution was then mixed thoroughly and analyzed via LC/MS/MS for […] (tracer) and methyl 3,5-diphenylpyridazine-4-carboxylate.
Receptor occupancy was determined by the ratio method which compared occupancy in the hippocampus (a region of high GABAA α5 receptor density) with occupancy in the cerebellum (a region with low GABAA α5 receptor density) and additionally by a high dose of the GABAA α5 negative allosteric modulator L-655,708 (10 mg/kg, i.v.) to define full occupancy.

Chain of GABAA α5 receptor (P19969 32-464 limits assumed): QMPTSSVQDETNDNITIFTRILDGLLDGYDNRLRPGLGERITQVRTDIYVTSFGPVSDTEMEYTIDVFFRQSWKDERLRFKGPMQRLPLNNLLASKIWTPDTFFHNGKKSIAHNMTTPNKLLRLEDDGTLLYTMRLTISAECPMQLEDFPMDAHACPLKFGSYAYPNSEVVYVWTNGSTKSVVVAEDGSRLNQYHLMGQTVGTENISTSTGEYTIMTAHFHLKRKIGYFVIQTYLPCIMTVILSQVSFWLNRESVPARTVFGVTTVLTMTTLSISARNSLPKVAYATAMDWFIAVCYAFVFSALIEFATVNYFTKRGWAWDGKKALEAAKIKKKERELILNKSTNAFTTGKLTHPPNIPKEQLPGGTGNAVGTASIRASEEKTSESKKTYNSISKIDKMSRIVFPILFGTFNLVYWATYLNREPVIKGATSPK
Chain of GABAA α5 receptor (P18508 39-466): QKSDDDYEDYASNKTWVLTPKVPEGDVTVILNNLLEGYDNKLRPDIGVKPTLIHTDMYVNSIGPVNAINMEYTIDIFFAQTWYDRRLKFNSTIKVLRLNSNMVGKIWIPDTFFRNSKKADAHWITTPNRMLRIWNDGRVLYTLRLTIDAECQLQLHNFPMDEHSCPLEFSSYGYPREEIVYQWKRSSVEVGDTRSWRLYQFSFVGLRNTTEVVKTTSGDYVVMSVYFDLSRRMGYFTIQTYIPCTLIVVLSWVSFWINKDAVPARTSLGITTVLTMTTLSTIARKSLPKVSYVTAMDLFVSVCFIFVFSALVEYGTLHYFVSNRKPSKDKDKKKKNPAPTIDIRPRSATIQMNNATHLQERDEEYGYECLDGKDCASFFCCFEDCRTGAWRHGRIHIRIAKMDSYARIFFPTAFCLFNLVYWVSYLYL
Chain of GABAA α5 receptor (P63079 26-473 partner): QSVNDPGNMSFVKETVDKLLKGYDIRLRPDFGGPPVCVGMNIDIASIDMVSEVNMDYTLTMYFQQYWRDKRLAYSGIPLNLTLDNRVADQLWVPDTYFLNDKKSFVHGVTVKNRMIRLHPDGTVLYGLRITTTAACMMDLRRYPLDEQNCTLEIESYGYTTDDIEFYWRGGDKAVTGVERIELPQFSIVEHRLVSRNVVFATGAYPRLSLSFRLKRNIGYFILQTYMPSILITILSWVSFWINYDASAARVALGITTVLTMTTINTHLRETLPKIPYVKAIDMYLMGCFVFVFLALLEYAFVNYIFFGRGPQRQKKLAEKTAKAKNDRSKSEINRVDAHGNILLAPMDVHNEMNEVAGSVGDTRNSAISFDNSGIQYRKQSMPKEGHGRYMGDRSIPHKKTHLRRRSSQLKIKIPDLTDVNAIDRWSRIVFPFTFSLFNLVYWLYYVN

Take `CNC(=O)c1c(-c2ccccc2)cnnc1-c1ccccc1` [Compound 1, N-methyl-3,5-diphenylpyridazine-4-carboxamide]: in data set [1], the activation at 1 µM was 8.5%.
With `CC(C)NC(=O)c1c(-c2ccccc2)cnnc1-c1ccccc1` [Compound 2], the activation at 1 µM in data set [1] amounted to 8.2%.
As to `NC(=O)c1c(-c2ccccc2)cnnc1-c1ccccc1` [Compound 3], the activation at 1 µM in data set [1] was 11.1%.
On the same count and under the same terms, the figure for `O=C(c1c(-c2ccccc2)cnnc1-c1ccccc1)N(Cc1ccccc1)Cc1ccccc1` [Compound 5] is 4.6%; for `O=C(NCc1ccccc1)c1c(-c2ccccc2)cnnc1-c1ccccc1` [Compound 9] it is 10%.
The same measure, in the same setting: the figure for `COc1cccc(-c2nncc(-c3ccccc3)c2C(=O)O)c1` [Compound 11] is 19.2%; for `CC1COC(c2c(-c3ccccc3)cnnc2-c2ccccc2)=N1` (centres unmarked) [Compound 21, 2-(3,5-diphenylpyridazin-4-yl)-4-methyl-4,5-dihydrooxazole] it is 5.3%.
The same measure, in the same setting: the figure for `CCc1coc(-c2c(-c3ccccc3)cnnc2-c2ccccc2)n1` [Compound 22, 2-(3,5-diphenylpyridazin-4-yl)-4-ethyloxazole] is 8.6%; for `COc1cccc(-c2nncc(-c3ccccc3)c2-c2nc(C)co2)c1` [Compound 24] it is 6%.
Consider `COC(=O)C1COC(c2c(-c3ccccc3)cnnc2-c2ccccc2)=N1` (centres unmarked) [Compound 25, Methyl 2-(3,5-diphenylpyridazin-4-yl)-4,5-dihydrooxazole-4-carboxylate], for which the activation at 1 µM in data set [1] was found to be 8.6%.
Consider `CCOC(=O)c1ncn2c1CN(C)C(=O)c1cc(N=[N+]=[N-])ccc1-2` [Ro 15-4513], for which, at GABAA α5 receptor, the “levels of Ro 15-4513 in hippocampus compared with cerebellum” value is given as > 5 fold.
